Measured values published in US11524944B2, “2-phenylpyrimidine-4-carboxamides as AHR inhibitors” (Bayer Aktiengesellschaft, priority 2017, dated 2022).

Molecular target: T1, Human AhR (Homo sapiens, UniProt P35869)
T1 construct: host or cells: U87 glioblastoma cells, stably transfected with a DRE firefly luciferase reporter and a constitutive renilla reporter
T1 sequence (P35869 11-848): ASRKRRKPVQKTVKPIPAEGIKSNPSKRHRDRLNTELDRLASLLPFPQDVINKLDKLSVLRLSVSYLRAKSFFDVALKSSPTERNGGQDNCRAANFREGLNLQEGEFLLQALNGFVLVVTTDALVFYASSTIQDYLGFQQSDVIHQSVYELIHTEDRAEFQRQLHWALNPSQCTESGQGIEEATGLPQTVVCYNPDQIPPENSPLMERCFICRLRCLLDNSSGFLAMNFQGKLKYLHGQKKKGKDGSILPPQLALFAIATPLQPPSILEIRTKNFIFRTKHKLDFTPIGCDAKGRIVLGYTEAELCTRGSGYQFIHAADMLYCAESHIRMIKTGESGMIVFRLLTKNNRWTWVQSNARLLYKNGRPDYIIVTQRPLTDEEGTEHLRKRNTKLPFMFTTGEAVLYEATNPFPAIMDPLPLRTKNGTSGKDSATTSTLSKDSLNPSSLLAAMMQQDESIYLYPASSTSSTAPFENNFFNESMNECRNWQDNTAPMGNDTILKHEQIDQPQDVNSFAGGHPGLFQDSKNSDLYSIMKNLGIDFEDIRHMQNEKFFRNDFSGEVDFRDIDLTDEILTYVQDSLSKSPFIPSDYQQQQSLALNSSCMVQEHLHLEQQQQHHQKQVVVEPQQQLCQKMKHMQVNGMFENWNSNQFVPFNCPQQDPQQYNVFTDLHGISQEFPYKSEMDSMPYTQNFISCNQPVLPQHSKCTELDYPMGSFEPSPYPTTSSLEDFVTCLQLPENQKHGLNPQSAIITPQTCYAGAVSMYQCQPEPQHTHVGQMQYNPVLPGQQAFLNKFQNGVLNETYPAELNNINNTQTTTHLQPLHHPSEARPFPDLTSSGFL
Assay: Transactivation assay in human cell line (in vitro assay 1): antagonism
Format: cell-based
Conditions: U87 glioblastoma cells, AHR inducible firefly luciferase reporter (DRE), 150 μM kynurenic acid, 20 hours
Description: (§1) Examples were tested in selected biological assays one or more times. When tested more than once, data are reported as either average values or as median values, wherein • the average value, also referred to as the arithmetic mean value, represents the sum of the values obtained divided by the number of times tested, and • the median value represents the middle number of the group of values when ranked in ascending or descending order. If the number of values in the data set is odd, the median is the middle value. If the number of values in the data set is even, the median is the arithmetic mean of the two middle values.
Transactivation Assay in Human Cell Line (In Vitro Assay 1)
(§2) Transactivation assay was carried out in U87 glioblastoma cells (ATCC) endogenously expressing AHR. In addition the cells were stably transfected with an AHR inducible firefly luciferase reporter gene construct that carried AHR-binding sites (DRE) in its promoter and a renilla reporter gene construct with constitutively active promoter. Kynurenic acid is an endogenous AHR activating ligand and was used to prestimulate test cells prior to testing the antagonistic properties of compounds.
In Vitro Assay 1: Antagonism in Human Cell Line
Firefly luciferase and Renilla activity was determined by the DualGlo Luciferase Assay System (Promega, #2920). Renilla activity was used to assess toxic effects of compounds.

| SMILES | IC50 [nM] |
| --- | --- |
| COc1ccc(-c2nc(C(=O)NCC(C)(C)O)cc(-c3ccc(Cl)cc3)n2)cc1 [Example 47, 6-(4-chlorophenyl)-N-(2-hydroxy-2-methylpropyl)-2-(4-methoxyphenyl)pyrimidine-4-carboxamide] | 2220 |
| COc1ccc(-c2nc(C(=O)N[C@@H](C)CO)cc(-c3ccc(OC(F)(F)F)cc3)n2)cc1 [Example 30, N-[(2S)-1-hydroxypropan-2-yl]-2-(4-methoxyphenyl)-6-[4-(trifluoromethoxy)phenyl]pyrimidine-4-carboxamide] | 730 |
| C[C@@H](CO)NC(=O)c1cc(-c2ccc(OC(F)(F)F)cc2)nc(-c2ccc(F)c(C#N)c2)n1 [Example 35, 2-(3-cyano-4-fluorophenyl)-N-[(2S)-1-hydroxypropan-2-yl]-6-[4-(trifluoromethoxy)phenyl]pyrimidine-4-carboxamide] | 78.3 |
| CC(C)(O)CNC(=O)c1cc(-c2ccc(Cl)cc2)nc(-c2ccc(Cl)cc2)n1 [Example 46, 2,6-bis(4-chlorophenyl)-N-(2-hydroxy-2-methylpropyl)pyrimidine-4-carboxamide] | 9790 |
| C[C@@H](CO)NC(=O)c1cc(-c2ccc(OC(F)(F)F)cc2)nc(-c2cc(Cl)cc(Cl)c2)n1 [Example 34, 2-(3,5-dichlorophenyl)-N-[(2S)-1-hydroxypropan-2-yl]-6-[4-(trifluoromethoxy)phenyl]pyrimidine-4-carboxamide] | 170 |
| C[C@@H](CO)NC(=O)c1cc(-c2ccc(Cl)cc2)nc(-c2ccc(F)c(C#N)c2)n1 [Example 68, 6-(4-chlorophenyl)-2-(3-cyano-4-fluorophenyl)-N-[(2S)-1-hydroxypropan-2-yl]pyrimidine-4-carboxamide] | 102 |
| CC(C)(O)CNC(=O)c1cc(-c2ccc(Cl)cc2)nc(-c2cccc(F)c2)n1 [Example 1, 6-(4-Chlorophenyl)-2-(3-fluorophenyl)-N-(2-hydroxy-2-methylpropyl)pyrimidine-4-carboxamide] | > 20000 |
| C[C@@H](CO)NC(=O)c1cc(-c2ccc(Cl)cc2)nc(-c2ccc(Cl)c(Cl)c2)n1 [Example 72, 6-(4-chlorophenyl)-2-(3,4-dichlorophenyl)-N-[(2S)-1-hydroxypropan-2-yl]pyrimidine-4-carboxamide] | 361 |
| CC(C)(O)CNC(=O)c1cc(-c2ccc(Cl)cc2)nc(-c2ccc(Br)cc2)n1 [Example 44, 2-(4-bromophenyl)-6-(4-chlorophenyl)-N-(2-hydroxy-2-methylpropyl)pyrimidine-4-carboxamide] | > 20000 |

Molecular target: T2, Mouse AhR (Mus musculus, UniProt P30561)
T2 sequence (P30561 1-848 P471L/N533S/M589L): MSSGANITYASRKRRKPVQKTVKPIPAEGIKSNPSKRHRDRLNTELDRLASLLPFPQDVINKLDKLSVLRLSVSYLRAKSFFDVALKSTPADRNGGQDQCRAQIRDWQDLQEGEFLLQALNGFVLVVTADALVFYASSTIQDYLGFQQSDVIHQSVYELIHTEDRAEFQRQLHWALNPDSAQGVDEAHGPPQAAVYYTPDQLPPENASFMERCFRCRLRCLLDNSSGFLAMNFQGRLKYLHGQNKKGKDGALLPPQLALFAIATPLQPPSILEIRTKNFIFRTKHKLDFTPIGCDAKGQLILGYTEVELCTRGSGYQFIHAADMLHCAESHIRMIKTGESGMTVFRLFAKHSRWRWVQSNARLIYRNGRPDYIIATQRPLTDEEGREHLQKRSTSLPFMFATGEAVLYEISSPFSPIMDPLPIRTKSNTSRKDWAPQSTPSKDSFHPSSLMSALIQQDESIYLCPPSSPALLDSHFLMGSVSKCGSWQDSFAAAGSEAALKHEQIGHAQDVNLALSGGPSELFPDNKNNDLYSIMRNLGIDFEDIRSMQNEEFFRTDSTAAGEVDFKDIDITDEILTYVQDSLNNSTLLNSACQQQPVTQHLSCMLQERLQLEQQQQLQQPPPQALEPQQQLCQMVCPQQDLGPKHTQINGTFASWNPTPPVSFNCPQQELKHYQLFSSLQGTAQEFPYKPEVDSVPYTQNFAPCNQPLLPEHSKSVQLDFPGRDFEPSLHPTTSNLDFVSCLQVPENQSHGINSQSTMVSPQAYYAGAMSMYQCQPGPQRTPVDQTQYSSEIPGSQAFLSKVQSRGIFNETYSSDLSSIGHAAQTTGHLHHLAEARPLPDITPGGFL
Assay: Transactivation assay in mouse cell line (in vitro assay 2): antagonism
Format: cell-based
Conditions: Hepa 1c1c7 cells, AHR inducible firefly luciferase reporter (DRE), 200 μM kynurenic acid, 20 hours
Description: as §1
Transactivation Assay in Mouse Cell Line (In Vitro Assay 2)
as §2, with “Hepa 1c1c7” for “U87 glioblastoma”, “(ATCC #CRL-2026)” for “(ATCC)”, “its” for “its promoter and a renilla reporter gene construct with constitutively active”
In Vitro Assay 2: Antagonism in Mouse Cell Line
Firefly luciferase activity was determined by the SteadyGlo Luciferase Assay System (Promega, #E2550).

| SMILES | IC50 [nM] |
| --- | --- |
| CC(C)(O)CNC(=O)c1cc(-c2ccc(Cl)cc2)nc(-c2ccc(F)c(Cl)c2)n1 [Example 50, 2-(3-chloro-4-fluorophenyl)-6-(4-chlorophenyl)-N-(2-hydroxy-2-methylpropyl)pyrimidine-4-carboxamide] | 53.8 |
| CC(C)(O)CNC(=O)c1cc(-c2ccc(OC(F)(F)F)cc2)nc(-c2cc(F)cc(F)c2)n1 [Example 24, 2-(3,5-difluorophenyl)-N-(2-hydroxy-2-methylpropyl)-6-[4-(trifluoromethoxy)phenyl]pyrimidine-4-carboxamide] | 28.3 |
| Cc1cc(F)cc(-c2nc(C(=O)NCC(C)(C)O)cc(-c3ccc(Cl)cc3)n2)c1 [Example 60, 6-(4-chlorophenyl)-2-(3-fluoro-5-methylphenyl)-N-(2-hydroxy-2-methylpropyl)pyrimidine-4-carboxamide] | 908 |
| C[C@@H](CO)NC(=O)c1cc(-c2ccc(Cl)cc2)nc(-c2cccc(Cl)c2)n1 [Example 71, 2-(3-chlorophenyl)-6-(4-chlorophenyl)-N-[(2S)-1-hydroxypropan-2-yl]pyrimidine-4-carboxamide] | 13.6 |
| C[C@@H](CO)NC(=O)c1cc(-c2ccc(OC(F)(F)F)cc2)nc(-c2cc(F)cc(F)c2)n1 [Example 39, 2-(3,5-difluorophenyl)-N-[(2S)-1-hydroxypropan-2-yl]-6-[4-(trifluoromethoxy)phenyl]pyrimidine-4-carboxamide] | 12.3 |
| C[C@@H](CO)NC(=O)c1cc(-c2ccc(OC(F)(F)F)cc2)nc(-c2cccc(Cl)c2)n1 [Example 37, 2-(3-chlorophenyl)-N-[(2S)-1-hydroxypropan-2-yl]-6-[4-(trifluoromethoxy)phenyl]pyrimidine-4-carboxamide] | 8.49 |
| Cc1cccc(-c2nc(C(=O)NCC(C)(C)O)cc(-c3ccc(Cl)cc3)n2)c1 [Example 48, 6-(4-chlorophenyl)-N-(2-hydroxy-2-methylpropyl)-2-(3-methylphenyl)pyrimidine-4-carboxamide] | 26 |
| Cc1cc(-c2nc(C(=O)NCC(C)(C)O)cc(-c3ccc(Cl)cc3)n2)ccc1F [Example 49, 6-(4-chlorophenyl)-2-(4-fluoro-3-methylphenyl)-N-(2-hydroxy-2-methylpropyl)pyrimidine-4-carboxamide] | 406 |
| Cc1cccc(-c2nc(C(=O)NCC(C)(C)O)cc(-c3ccc(OC(F)(F)F)cc3)n2)c1 [Example 16, N-(2-hydroxy-2-methylpropyl)-2-(3-methylphenyl)-6-[4-(trifluoromethoxy)phenyl]pyrimidine-4-carboxamide] | 12.9 |
| O=C(NC(CO)C1CCC1)c1cc(-c2ccc(OC(F)(F)F)cc2)nc(-c2cccc(F)c2)n1 (stereo not shown) [Example 85, N-(1-cyclobutyl-2-hydroxyethyl)-2-(3-fluorophenyl)-6-[4-(trifluoromethoxy)phenyl]pyrimidine-4-carboxamide] | 12.8 |
| CC(C)(O)CNC(=O)c1cc(-c2ccc(OC(F)(F)F)cc2)nc(-c2ccc(Cl)c(Cl)c2)n1 [Example 22, 2-(3,4-dichlorophenyl)-N-(2-hydroxy-2-methylpropyl)-6-[4-(trifluoromethoxy)phenyl]pyrimidine-4-carboxamide] | 278 |
| Cc1cc(-c2nc(C(=O)NCC(C)(C)O)cc(-c3ccc(OC(F)(F)F)cc3)n2)ccc1F [Example 17, 2-(4-fluoro-3-methylphenyl)-N-(2-hydroxy-2-methylpropyl)-6-[4-(trifluoromethoxy)phenyl]pyrimidine-4-carboxamide] | 637 |
| C[C@@H](CO)NC(=O)c1cc(-c2ccc(Cl)cc2)nc(-c2cc(F)cc(F)c2)n1 [Example 74, 6-(4-chlorophenyl)-2-(3,5-difluorophenyl)-N-[(2S)-1-hydroxypropan-2-yl]pyrimidine-4-carboxamide] | 17 |
